Results from US6911537B2, “Xenobiotic compound modulated expression systems and uses therefor” (The Salk Institute for Biological Studies, priority 1998, dated 2005).
“Also recorded” adds a separate entry of the source. Like-named read-outs stand apart in the source and are kept apart here.

Columns and labels:
endogenous PXR = biological target: T1, endogenous PXR (Rattus norvegicus, UniProt Q9R1A7); settings: hepatocytes
T1 sequence (Q9R1A7 1-431): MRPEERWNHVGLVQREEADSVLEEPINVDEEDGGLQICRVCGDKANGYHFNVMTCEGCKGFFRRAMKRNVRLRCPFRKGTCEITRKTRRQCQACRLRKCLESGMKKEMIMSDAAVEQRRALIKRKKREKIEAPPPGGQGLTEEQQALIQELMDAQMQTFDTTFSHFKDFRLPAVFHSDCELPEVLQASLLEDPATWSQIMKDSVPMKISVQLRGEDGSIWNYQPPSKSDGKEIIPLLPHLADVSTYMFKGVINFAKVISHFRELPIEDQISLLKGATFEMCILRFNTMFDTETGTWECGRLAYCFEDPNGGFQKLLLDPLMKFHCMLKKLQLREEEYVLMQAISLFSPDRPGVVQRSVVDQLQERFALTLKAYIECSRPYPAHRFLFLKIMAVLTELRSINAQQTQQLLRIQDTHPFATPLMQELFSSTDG
Protocol: (§1) The PCR-amplified sequences and target mutagenesis were confirmed by DNA sequencing.
(§2) All compounds were purchased from Sigma.
(§3) A panel of natural and synthetic steroid and nonsteroid compounds were tested for their ability to activate SXR and/or PXR in transfection-based assays using primary rat hepatocytes as recipient cells and the cellular promoters of the rat CYP3A23 gene or the human CYP3A4 gene as reporters.

hGRα = biological target: T2, hGRα (Homo sapiens, UniProt P04150); experiment: Activation of hGRα on MTV-luc; assay type: cell-based; settings: 50 μM (FIG. 7D; 50 mM in FIG. 5 legend)
T2 construct: expressed in transfected cells
T2 sequence (P04150 1-777): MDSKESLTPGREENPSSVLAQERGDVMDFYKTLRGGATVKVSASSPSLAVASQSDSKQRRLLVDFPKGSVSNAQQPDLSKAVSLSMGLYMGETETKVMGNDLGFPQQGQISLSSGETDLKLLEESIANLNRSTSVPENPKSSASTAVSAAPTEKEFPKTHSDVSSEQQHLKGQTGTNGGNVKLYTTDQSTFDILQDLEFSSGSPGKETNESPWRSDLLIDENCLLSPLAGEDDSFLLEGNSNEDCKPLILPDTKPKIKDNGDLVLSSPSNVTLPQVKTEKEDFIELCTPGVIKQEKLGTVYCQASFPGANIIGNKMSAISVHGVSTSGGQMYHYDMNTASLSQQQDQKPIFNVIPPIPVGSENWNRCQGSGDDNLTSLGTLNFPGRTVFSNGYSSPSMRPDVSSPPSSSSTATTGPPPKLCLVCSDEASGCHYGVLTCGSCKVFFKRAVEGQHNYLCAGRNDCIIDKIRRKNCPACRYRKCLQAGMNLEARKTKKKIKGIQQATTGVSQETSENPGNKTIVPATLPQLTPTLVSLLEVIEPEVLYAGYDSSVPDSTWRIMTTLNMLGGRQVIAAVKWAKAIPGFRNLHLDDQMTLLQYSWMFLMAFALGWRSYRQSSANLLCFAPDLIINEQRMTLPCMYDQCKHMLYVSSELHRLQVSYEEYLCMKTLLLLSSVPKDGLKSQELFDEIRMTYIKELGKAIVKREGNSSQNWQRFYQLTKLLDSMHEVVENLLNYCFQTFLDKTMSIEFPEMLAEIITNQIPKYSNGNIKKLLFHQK
Protocol: FIG. 5 further illustrates the broad ligand specificity of SXR. […] 6β-hydroxylated, non-reduced, 5α and 5β reduced forms of corticosterone were tested for their ability to activate GAL-SXR on tk(MH100)4-luc and hGRa on MTV-luc at […].
6β-hydroxylated, non-reduced, 5α and 5β reduced forms of corticosterone were tested for their ability to activate GAL-hSXR on tk(MH100)4-luc (lefthand group of 5 columns) and hGRα on MTV-luc at 50 μM (righthand group of 5 columns). […] In each group of columns: column 1=solvent; column 2=corticosterone; column 3=5α-tetrahydrocorticosterone; column 4=5β-tetrahydrocorticosterone; and column 5=6β-OH-corticosterone.

SXR [1] = biological target: T3, SXR (Homo sapiens, UniProt O75469)
T3 sequence (O75469 1-434): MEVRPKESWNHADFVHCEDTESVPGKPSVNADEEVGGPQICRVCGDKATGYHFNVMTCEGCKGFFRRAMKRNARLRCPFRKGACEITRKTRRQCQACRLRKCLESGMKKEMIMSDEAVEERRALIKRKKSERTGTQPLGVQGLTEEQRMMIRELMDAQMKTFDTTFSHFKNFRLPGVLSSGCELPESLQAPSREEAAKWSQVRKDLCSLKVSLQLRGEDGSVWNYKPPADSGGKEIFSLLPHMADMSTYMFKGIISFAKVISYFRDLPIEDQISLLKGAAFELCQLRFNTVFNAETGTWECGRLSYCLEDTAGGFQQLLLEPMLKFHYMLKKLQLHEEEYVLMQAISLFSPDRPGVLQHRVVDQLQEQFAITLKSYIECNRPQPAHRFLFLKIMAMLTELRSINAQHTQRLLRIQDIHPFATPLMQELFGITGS
T3 sequence (P19793 1-462 partner): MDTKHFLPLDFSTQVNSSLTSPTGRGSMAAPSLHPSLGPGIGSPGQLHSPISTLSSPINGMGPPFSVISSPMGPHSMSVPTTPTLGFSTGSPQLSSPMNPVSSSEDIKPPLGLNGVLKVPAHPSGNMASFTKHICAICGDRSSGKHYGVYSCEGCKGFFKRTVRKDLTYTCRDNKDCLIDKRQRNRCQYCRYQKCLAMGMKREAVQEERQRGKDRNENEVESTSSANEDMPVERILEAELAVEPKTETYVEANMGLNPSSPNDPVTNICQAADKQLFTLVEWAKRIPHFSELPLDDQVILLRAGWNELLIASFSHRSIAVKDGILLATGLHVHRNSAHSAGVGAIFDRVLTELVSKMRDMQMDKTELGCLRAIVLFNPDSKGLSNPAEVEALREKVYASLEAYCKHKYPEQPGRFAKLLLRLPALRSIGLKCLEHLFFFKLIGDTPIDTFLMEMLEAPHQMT

SXR [2] = biological target: T4, SXR (Homo sapiens, UniProt O75469); remark: listed apart in the source
T4 sequence (O75469 1-434): T3 sequence (O75469 1-434)
Protocol: as §1, §2, §3

CYP3A11 gene = settings: single dose 24 h before sacrifice
Protocol: The animals were allowed free access to food and water at all times. […] When necessary, mice were treated with a single intraperitoneal injection of DEX (50 mg/kg), PCN (40 mg/kg), or CTZ (50 mg/kg).
To detect specific transcripts, [^32P]-cDNA probes labeled by Random Primer Labeling Kit (Boringher) were hybridized to the membranes. The probe used to detect transgene contains both the SXR cDNA and the SV40 sequences. […] The filters were subsequently stripped and rehybridized with a murine glyceraldehyde-3-phosphate dehydrogenase (GAPDH) cDNA probe for RNA loading normalization.
Tissues were harvested 24 h later and subjected to Northern blot analysis.

SXR [3] = biological target: T3, SXR; experiment: Transfection-based reporter assay in CV-1 cells, GAL4-SXR or full-length SXR; parameters: Activation of SXR response elements (DR-3, DR-4, DR-5) by full-length SXR: dose or concentration left out as unconfirmed; settings: for Activation of human SXR by compounds known to induce CYP3A4: 50 μM, tamoxifen 5 μM (FIG. 7A); for Activation of SXR in transfection-based assays: GAL4-SXR LBD chimera or full-length SXR, CV-1 cells, steroids at high doses, up to 50 mM [sic]; for Activation of SXR response elements (DR-3, DR-4, DR-5) by full-length SXR: cotransfection, panel of steroids as printed (FIG. 4)

With `Cc1ccc2cc3c(ccc4ccccc43)c3c2c1CC3` [3MC, 3-methylcholanthrene] the “Activation of CYP3A23 promoter reporter in the absence of SXR” value (from here on “Activation … in the absence of SXR”) (endogenous PXR) was “fail to activate or behave as poor activators”.

With `C[C@]12CC[C@@H](O)C[C@@H]1CC[C@@H]1[C@@H]2[C@@H](O)C[C@]2(C)[C@@H](C(=O)CO)CC[C@@H]12` [5α, 5α-tetrahydrocorticosterone] the “Activation of hGRα on MTV-luc by corticosterone derivatives” value (“Activation of hGRα on MTV-luc” for short) (hGRα) was “slightly active” and the “Activation of GAL-SXR on tk(MH100)4-luc by corticosterone derivatives” value (SXR [1]) was “effective SXR activators”.

`C[C@]12CCC(O)C[C@H]1CC[C@@H]1[C@@H]2[C@@H](O)C[C@]2(C)[C@@H](C(=O)CO)CC[C@@H]12` (stereo partly drawn) [5β, 5β-tetrahydrocorticosterone] was tested, and the “Activation of hGRα on MTV-luc” value (hGRα) was “completely inactive” and the “Activation of GAL-SXR on tk(MH100)4-luc by corticosterone derivatives” value (SXR [1]) was “effective SXR activators”.

In the case of `C[C@]12C[C@H](O)[C@H]3[C@@H](C[C@@H](O)C4=CC(=O)CC[C@@]43C)[C@@H]1CC[C@@H]2C(=O)CO` [6β-hydroxy corticosterone], the “Activation of hGRα on MTV-luc” value (hGRα) is reported as “slightly active”.

`CCCCC/C=C/C=C1/C(=O)C=C[C@@H]1C/C=C\CCCC(=O)O` [15d-PGJ2] was tested, and the “Activation of CYP3A23 promoter reporter by PPARγ ligands in the presence of SXR” value (SXR [2]) was “fail to activate”.

With `Clc1ccccc1C(c1ccccc1)(c1ccccc1)n1ccnc1` [CTZ, clotrimazole] the “Activation of CYP3A23 promoter reporter with mutated DR-3 element (DR3/M1, DR3/M2)” value (SXR [2]) was “abolished”, the “Inducibility of CYP3A23 promoter reporter with DR-3 replaced by IR-6 element (DR3/IR6)” value (SXR [2]) was “rescueS the inducibility” and the “Induction of liver CYP3A11 expression in Alb-SXR transgenic mice” value (CYP3A11 gene; RIF 5 mg/kg, BRL 20 mg/kg, troglitazone and ciglitazone 150 mg/kg by gavage, CTZ 50 mg/kg, PCN 40 mg/kg i.p.) was “higher level”. For the same molecule, the “Induction of liver CYP3A11 expression in wild type / nontransgenic mice” value (CYP3A11 gene; same doses as in transgenic mice) was “moderate level”.

With `CC/C(=C(/CC)c1ccc(O)cc1)c1ccc(O)cc1` [DES, diethylstilbestrol] the “Activation of human SXR by compounds known to induce CYP3A4” value (from here on “Activation of human SXR”) (SXR [3]) was “most potent activators”.

For `C[C@]12CCC(=O)C=C1CC[C@@H]1[C@@H]2[C@@H](O)C[C@]2(C=O)[C@@H](C(=O)CO)CC[C@@H]12` [aldosterone], the “Activation of SXR in transfection-based assays” value (SXR [3]) was “inactive” and the “Activation of SXR response elements (DR-3, DR-4, DR-5) by full-length SXR” value (“Activation of SXR response elements” below) (SXR [3]) was “little response”.

`C[C@]12C[C@H](O)[C@H]3[C@@H](CCC4=CC(=O)CC[C@@]43C)[C@@H]1CC[C@@H]2C(=O)CO` [corticosterone] was tested, and the “Activation of human SXR” value (SXR [3]) was “most potent activators”, the “Activation of SXR in transfection-based assays” value (SXR [3]) was “most potent and efficacious activator; also recorded: activated” and the “Activation of SXR response elements” value (SXR [3]) was “among the best activators”.

`C[C@]12CCC(=O)C=C1CC[C@@H]1[C@@H]2[C@@H](O)C[C@@]2(C)[C@H]1CC[C@]2(O)C(=O)CO` [cortisol] was tested, and the “Activation of SXR response elements” value (SXR [3]) was “little response”.

`C[C@]12CCC(=O)C=C1CC[C@@H]1[C@@H]2C(=O)C[C@@]2(C)[C@H]1CC[C@]2(O)C(=O)CO` [cortisone] was tested, and the “Activation of SXR response elements” value (SXR [3]) was “intermediate activators; also recorded: intermediate group”.

For `O=c1oc2cc(O)ccc2c2oc3cc(O)ccc3c12` [coumestrol], the “Activation of human SXR” value (SXR [3]) was “most potent activators”.

For `C[C@]12CCC(=O)C[C@@H]1CC[C@@H]1[C@@H]2CC[C@]2(C)[C@@H](O)CC[C@@H]12` [dihydrotestosterone], the “Activation of SXR in transfection-based assays” value (SXR [1]) was “remarkably effective activators”, the “Activation of SXR response elements” value (SXR [1]) was “among the best activators” and the “Activation of human SXR” value (SXR [1]) was “activate”.

For `Oc1ccc([C@H]2COc3cc(O)ccc3C2)cc1` [equol], the “Activation of human SXR” value (SXR [3]) was “activate”.

In the case of `O=c1c(-c2ccc(O)cc2)coc2cc(O)cc(O)c12` [genistein], the “Activation of human SXR” value (SXR [3]) is reported as “activate”.

`CCC1(c2ccccc2)C(=O)NC(=O)NC1=O` [phenobarbital] was tested, and the “Induction of CYP3A23 promoter reporter with co-transfection of SXR” value (SXR [2]) was “significant induction” and the “Activation … in the absence of SXR” value (endogenous PXR) was “fail to activate or behave as poor activators”.

With `CC(=O)[C@H]1CC[C@H]2[C@@H]3CC=C4C[C@@H](O)CC[C@]4(C)[C@H]3CC[C@]12C` [pregnenolone] the “Induction of CYP3A23 promoter reporter with co-transfection of SXR” value (SXR [2]) was “significant induction”, the “Activation … in the absence of SXR” value (endogenous PXR) was “fail to activate or behave as poor activators” and the “Activation of SXR response elements” value (SXR [3]) was “among the best activators”.

For `CC(=O)[C@H]1CC[C@H]2[C@@H]3CCC4=CC(=O)CC[C@]4(C)[C@H]3CC[C@]12C` [progesterone], the “Activation … in the absence of SXR” value (endogenous PXR) was “fail to activate or behave as poor activators”.

In the case of `CC(=O)S[C@@H]1CC2=CC(=O)CC[C@]2(C)[C@H]2CC[C@@]3(C)[C@@H](CC[C@@]34CCC(=O)O4)[C@H]12` [spironolactone], the “Activation of human SXR” value (SXR [1]) is reported as “activate”.

estrogen was tested, and the “Activation of SXR in transfection-based assays” value (SXR [3]) was “activated”.
